Measured values published in PubChem BioAssay (NCI).
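Following 48 hours of exposure in 96-well plates, responses at five concentrations were used to interpolate endpoints linearly. The concentration for 50% growth inhibition is given as GI50. TGI is the concentration that stops growth completely.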

Tests used:
Assay in all cases: inhibition of tumour cell growth, NCI panel, 48 h
OVCAR-5 ovarian = test system: OVCAR-5 ovarian
SK-OV-3 ovarian = test system: SK-OV-3 ovarian
NCI-H460 lung = test system: NCI-H460 lung
HL-60(TB) leukemia = test system: HL-60(TB) leukemia
TK-10 renal = test system: TK-10 renal
SR leukemia = test system: SR leukemia
SN12C renal = test system: SN12C renal
A549 NSCLC = test system: A549 NSCLC
DU-145 prostate = test system: DU-145 prostate
ACHN renal = test system: ACHN renal
HOP-62 NSCLC = test system: HOP-62 NSCLC
EKVX NSCLC = test system: EKVX NSCLC
PC-3 prostate = test system: PC-3 prostate
NCI-H522 lung = test system: NCI-H522 lung
LOX IMVI melanoma = test system: LOX IMVI melanoma
OVCAR-3 ovarian = test system: OVCAR-3 ovarian
CCRF-CEM leukemia = test system: CCRF-CEM leukemia
SW-620 colon = test system: SW-620 colon
HT29 colon = test system: HT29 colon
MDA-MB-435 = test system: MDA-MB-435
SF-295 CNS = test system: SF-295 CNS
SK-MEL-28 melanoma = test system: SK-MEL-28 melanoma
OVCAR-4 ovarian = test system: OVCAR-4 ovarian
KM12 colon = test system: KM12 colon
SF-539 CNS = test system: SF-539 CNS
MOLT-4 leukemia = test system: MOLT-4 leukemia
NCI-H226 lung = test system: NCI-H226 lung
T-47D breast = test system: T-47D breast
SF-268 CNS = test system: SF-268 CNS

What does the source list for `C=C(C)[C@@H]1CC[C@]2(C(=O)NCCNCCNCCN)CC[C@]3(C)[C@H](CC[C@@H]4[C@@]5(C)CCC(=O)C(C)(C)[C@@H]5CC[C@]43C)[C@@H]12`?
GI50 (OVCAR-5 ovarian): 8.78 µM; TGI (OVCAR-5 ovarian): 18.4 µM; GI50 (SK-OV-3 ovarian): 10.6 µM; TGI (SK-OV-3 ovarian): 25.9 µM; GI50 (NCI-H460 lung): 9.4 µM; TGI (NCI-H460 lung): 18.1 µM; GI50 (HL-60(TB) leukemia): 8.88 µM; TGI (HL-60(TB) leukemia): 19 µM; GI50 (TK-10 renal): 10.1 µM; TGI (TK-10 renal): 19.7 µM; GI50 (SR leukemia): 5.91 µM; TGI (SR leukemia): 20.1 µM; GI50 (SN12C renal): 7.56 µM; TGI (SN12C renal): 15.3 µM; GI50 (A549 NSCLC): 7.69 µM; TGI (A549 NSCLC): 15.9 µM; GI50 (DU-145 prostate): 7.47 µM; TGI (DU-145 prostate): 14.1 µM; GI50 (ACHN renal): 13.8 µM; TGI (ACHN renal): > 50 µM; GI50 (HOP-62 NSCLC): 7.91 µM; TGI (HOP-62 NSCLC): 16.6 µM; GI50 (EKVX NSCLC): 7.34 µM; TGI (EKVX NSCLC): 14 µM; GI50 (PC-3 prostate): 6.26 µM; TGI (PC-3 prostate): 13.1 µM; GI50 (NCI-H522 lung): 8.72 µM; TGI (NCI-H522 lung): 18.5 µM; GI50 (LOX IMVI melanoma): 8.72 µM; TGI (LOX IMVI melanoma): 16.6 µM; GI50 (OVCAR-3 ovarian): 7.65 µM; TGI (OVCAR-3 ovarian): 15 µM; GI50 (CCRF-CEM leukemia): 9.65 µM; TGI (CCRF-CEM leukemia): 27.8 µM; GI50 (SW-620 colon): 7.91 µM; TGI (SW-620 colon): 16.6 µM; GI50 (HT29 colon): 7.17 µM; TGI (HT29 colon): 14.6 µM; GI50 (MDA-MB-435): 8.7 µM; TGI (MDA-MB-435): 17.5 µM; GI50 (SF-295 CNS): 9.42 µM; TGI (SF-295 CNS): 18.3 µM; GI50 (SK-MEL-28 melanoma): 8.5 µM; TGI (SK-MEL-28 melanoma): 17 µM; GI50 (OVCAR-4 ovarian): 7.39 µM; TGI (OVCAR-4 ovarian): 15.3 µM; GI50 (KM12 colon): 8.47 µM; TGI (KM12 colon): 16.6 µM; GI50 (SF-539 CNS): 7.53 µM; TGI (SF-539 CNS): 14.6 µM; GI50 (MOLT-4 leukemia): 6.96 µM; TGI (MOLT-4 leukemia): 31.1 µM; GI50 (NCI-H226 lung): 7.74 µM; TGI (NCI-H226 lung): 17.1 µM; GI50 (T-47D breast): 7.52 µM; TGI (T-47D breast): 18.7 µM; GI50 (SF-268 CNS): 7.53 µM; TGI (SF-268 CNS): 15.9 µM
